In US4526894A, “Pharmaceutically active 4-hydroxy-3-benzoyl-2-quinolone derivatives” (Nippon Shinyaku Co. Ltd., priority 1982, dated 1985):

Assays:
[1] = test system: SRS-A (slow reacting substance of anaphylaxis); assay: Anti-SRS-A action using isolated ileus of guinea pigs
Method: Anti-SRS-As action (An anti-action against slow reacting substance of anaphylaxis).
Hartley strain male guinea pigs (300 to 350 grams body weight) are killed and 1.0 to 1.5 cm of ileus is immeidiately excised from ileocecal parts and is suspended in 10 ml of Tyrode solution (95% O2 -5% CO2 saturation) containing 10^-7 g/ml of atropine and 10^-6 g/ml of pyrilamine. SRS-A (20 units) (the amount of SRS-A showing the same shrinkage as 5 ng of histamine is defined as 1 unit) prepared by using sensitized guinea pig lung is given to cause shrinkage there. Then antagonistic action of test compounds treated five minutes ago against the shrinkage is measured and recorded via isotonic transducer.
Inhibition Ratio of Test Compd (%)=(1-A'/A)×100
in which A' is a height of shrinkage of SRS-A+test compound and A is that of SRS-A.

[2] = test system: passive cutaneous anaphylaxis (DNP-As antigen) in Wister strain rats; assay: passive cutaneous anaphylaxis (PCA) assay in rats; assay type: in vivo; settings: 10 mg/kg oral, one hour before antigen; for inhibition in vivo at 10 mg/kg: Rattus norvegicus, po, 1 h, read-out: PCA Inhibition Ratio %
Method: (i) Antiserum abundant in homocytotropic antibody is prepared by the same method as Tada and Okumura did (cf. Journal of Immunology, vol. 106, page 1002, 1976). Thus, 1 mg (calculated as an amount of protein) of DNP-As (2,4-dinitrophenyl-coupled ascaris extract) prepared by methods of Strejan and Campbell (Journal of Immunology, vol. 98, p. 893, 1971) and of Eisen (Journal of Amer. Chem. Soc., vol. 85, p 4593, 1953) and 1×10^10pertussis vaccine are administered to each paw of Wister strain rats (180 to 200 grams body weights) by dividing the dose by four. Five days later, 0.5 mg of DNP-As is administered into muscle of back. Eight days later from the initial immunization, blood is taken from descending aorta under anesthetizing with ether, the resulting serum is stored at -80° and is melted before use.
(ii) Effect of tested compounds is investigated as follows:
Anti-serum obtained by the method (i) is diluted with physiological saline solution double by double successively and 0.05 ml of each diluted solution is administered into back of Wister strain rats (140 to 160 grams body weight) subcutaneously. After 72 hours, a solution of 2 mg (calculated as protein) of DNP-As and 2.5 mg of Evans Blue dissolved in 1 ml of physiological saline solution is administered intraveously at a dose of 5 ml/kg. After 30 minutes from antigen solution administration, the animals are killed and diameters of blue spots appeared at the place where antiserum is administered are measured. The PCA test is conducted by the same method as already described using a diluted solutions of antiserum which always show 10 mm or more of spot diameters and the effect of the test compounds is judged. Thus antiserum diluted solutions are administered to two places in back. Test compounds are administered orally at the dose of 10 mg/kg one hour before administration of antigen solution. From the skin of reacted parts of killed animals, leaked or emitted dyestuff is extracted and the amount of the dyestuff is measured. The inhibition ratio is calculated by the following expression:
Inhibition Ratio=(1-A'/A)×100
in which A' is an amount of dyestuff in the group treated with the test compounds and A is that in the control group.

[3] = test system: carrageenin edema in SD-strain rats; assay: Carrageenin edema at hind foot of rats (anti-inflammatory action); assay type: in vivo, rat; settings: Rattus norvegicus, po, 3 h, 200 mg/kg per os one hour before carrageenin; 3 hours after; read-out: % Inhibition of carrageenin edema
Method: The anti-inflammatory action of the compounds of the present invention were evaluated by measuring the inhibition against carrageein edema as set forth below.
Carrageenin edema at hind foot of rats:
SD-strain rats of body weights of around 150 grams were used, each group consisting of five rats. A solution (0.1 ml) of 0.5% carrageenin dissolved in physiological saline water was hypodermically injected into right hind foot pat of the rats and, one hour prior to the injection of carrageenin, 200 mg/kg of test compound was given per os. Foot volumes of the rats before the carrageenin treatment and those of three hours after the treatment were measured and the differences were compared with those of the control group to determine the effect of the compounds.

[4] = test system: male mice; assay: Acute oral toxicity in mice (lethal ratio); assay type: in vivo; settings: 400 mg/kg oral, two weeks, four mice per group
Method: Acute toxicity was determined two weeks after oral administration of 400 mg/kg to male mice. Four mice (denominator) are used in each group and the dead numbers are given as the numerator. The compounds of the present invention show little, if any, toxicity.
Lethal ratios for all other compounds are 0/4 at doses of […]. It is therefore apparent that they are all safe compounds.

[5] = test system: allergic asthma; settings: cited from earlier work
[6] = 10^-6 M; guinea pig ileus, SRS-A 20 units; 5 min, 1 µM

SMILES | SRS-A Inhibition Ratio % [1, 6] [%] | inhibition in vivo at 10 mg/kg [2] [%] | inhibition in vivo at 200 mg/kg [3] [%] | Lethal Ratio (dead/treated) [4] | SRS-A Inhibition Ratio % ([1]; 10^-6 M, guinea pig ileus, SRS-A 20 units, 5 min, 1 µM) [%] | SRS-A Inhibition Ratio % (value in parentheses) ([1]; 10^-7 M; guinea pig ileus, SRS-A 20 units; 5 min, 0.1 µM) [%] | PCA Inhibition Ratio % ([2]; rat, 10 mg/kg) [%] | duration of action (in words) ([5]; in vivo) | effect on allergic asthma (in words) ([5]; in vivo) | effect on oral administration (in words) ([5]; oral administration)
Cc1cccc2c(O)c(C(=O)c3ccccc3)c(=O)[nH]c12 [Example 19, 3-benzoyl-4-hydroxy-8-methyl-2-quinolone] | 19.0 | 29.6 | 70 | 0/4 | – | – | – | – | – | –
CCCCCCc1ccc2[nH]c(=O)c(C(=O)c3ccccc3)c(O)c2c1 [Example 23, 3-benzoyl-6-n-hexyl-4-hydroxy-2-quinolone] | – | – | 15.9 | 0/4 | 83.3 | 32.8 | 13.1 | – | – | –
O=C(c1ccccc1Cl)c1c(O)c2ccccc2[nH]c1=O [Example 35, 3-(2-chlorobenzoyl)-4-hydroxy-2-quinolone] | 32.6 | 45.6 | – | 0/4 | – | – | – | – | – | –
O=C(c1ccc([N+](=O)[O-])cc1)c1c(O)c2ccccc2[nH]c1=O [Example 47, 4-hydroxy-3-(4-nitrobenzoyl)-2-quinolone] | 22.0 | 49.4 | – | 0/4 | – | – | – | – | – | –
O=C(O)c1cc(=O)c2c(OCC(O)COc3cccc4oc(C(=O)O)cc(=O)c34)cccc2o1 [Sodium chromoglicate] | – | – | – | – | – | – | – | rather short | effective for allergic asthma | does not show any effect on oral administration
